In assay [1] the test system is LAMSS. The assay can be described thus: Pre-emergent Test III, preemergent activity in wheat and barley. The assay is classed as in vivo. Here is the method: (§1) Pre-emergent Test III. Seeds of test species were planted into square plastic pots (10 cm wide) containing sandy loam soil. After planting, all pots were sub-irrigated 16 h prior to compound application. A weighed amount, determined by the highest rate to be tested, of each test compound was placed in a 25 mL glass vial and was dissolved in 4 mL of a 97:3 v/v mixture of acetone and DMSO to obtain concentrated stock solutions. […] The concentrated stock solutions obtained were diluted with 20 mL of an aqueous mixture containing water and 0.02% w/v (weight/volume) of Triton X-155 to obtain spray solutions containing the highest application rates. Additional application rates were obtained by serial dilution of 12 mL of the high rate solution into a solution containing 2 mL of 97:3 v/v mixture of acetone and DMSO and 10 mL of an aqueous mixture containing water and 0.02% w/v (weight/volume) of Triton X-155 to obtain 1⁄2×, 1⁄4×, 1⁄8× and 1/16× rates of the high rate. Compound requirements are based upon a 12 mL application volume at a rate of 187 liters per hectare (L/ha). Formulated compounds were applied to the soil surface with an overhead Mandel track sprayer equipped with […] nozzles calibrated to deliver 187 L/ha over an application area of 0.503 square meters. Control pots were sprayed in the same manner with the solvent blank. The treated pots and control pots were placed in a greenhouse as described above and watered through surface irrigation. After 21 d, the condition of the test pots as compared with that of the untreated pots was determined visually and scored on a scale of 0 to 100 percent where 0 corresponds to no herbicidal effect and 100 corresponds to plant death or lack of emergence from the soil. By applying the well-accepted probit analysis as described by J. Berkson in Journal of the American Statistical Society, 48, 565 (1953) and by D. Finney in “Probit Analysis” Cambridge University Press (1952), the above data can be used to calculate GR20, GR50, GR80 and GR90 values, which are defined as growth reduction factors that correspond to the effective dose of herbicide required to kill or control 20 percent, 50 percent, 80 percent or 90 percent, respectively, of a target plant.

Assay [2] concerns LOLSS. The description is as above. The assay is classed as in vivo, Lolium multiflorum, Lolium rigidum. How it is done:
as §1

The mark [3] stands for this setting: 21 days after application, dose to kill or control 50%, probit analysis.
The mark [4] stands for this setting: 21 days after application, dose to kill or control 80%, probit analysis.

Where only a bound is given, the exact number is not on record here.

`COC(=O)c1nc(-c2ccc(Br)c(F)c2)c(F)c(N)c1Cl` [Compound 49]: the “Visual Growth Reduction (%) 21 Days After Application, LAMSS” value in assay [1] (35 g ai/ha) and in assay [1] (70 g ai/ha) was “A (95-100)” each time. The “GR50 LAMSS” value in assay [1] (setting [3]) was determined as 1 g ai/ha. Moreover, the “GR80 LAMSS” value in assay [1] (setting [4]) came out at 3 g ai/ha. For the same compound, the “Visual Growth Reduction (%) 21 Days After Application, LOLSS” value in assay [2] (35 g ai/ha) and in assay [2] (70 g ai/ha) was “G (0-29)” each time. In assay [2] (setting [3]), the “GR50 LOLSS” value is greater than 70 g ai/ha. The “GR80 LOLSS” value in assay [2] (setting [4]) is greater than 70 g ai/ha.

Source of the values: patent publication US9113629B2, “4-amino-6-(4-substituted-phenyl)-picolinates and 6-amino-2-(4-substituted-phenyl)-pyrimidine-4-carboxylates and their use as herbicides” (DOW AGROSCIENCES LLC, priority 2013, dated 2015).
